According to patent US6914045B2, “Glycopeptide antibiotics” (Wyeth Holdings Corporation, priority 2001, dated 2005):
In brackets after ≈: the same amount, converted by molar mass.

Experiments:
Experiment in all cases: in vitro antibacterial evaluation, MIC by broth dilution
Format in all cases: cell-based
Escherichia coli = system: Escherichia coli
Outline: (§1)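 MIC, the lowest antibiotic concentration preventing growth, was read across 64-0.06 μg/mL with 5×10^5 CFU/mL inoculum. Method followed NCCLS M7-A2 broth dilution using Mueller-Hinton II; Gram-positive strains covered recent methicillin-, penicillin- and/or vancomycin-resistant clinical isolates.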

Streptococcus sp. = conditions: broth dilution, 18 hours at 35° C.; for MIC Streptococcus pneumoniae (ATCC 6301): strain ATCC 6301; for MIC Streptococcus pneumoniae (GC 1894): strain GC 1894; for MIC Streptococcus pyogenes (GC 4563): strain GC 4563; for MIC Streptococcus agalactiae (GC 4564): strain GC 4564; for MIC Streptococcus pneumoniae (GC 4565): strain GC 4565
Outline: as §1

Staphylococcus sp. = conditions: broth dilution, 18 hours at 35° C.; for MIC Staphylococcus aureus (GC 1131): strain GC 1131
Outline: as §1

Enterococcus sp. = conditions: broth dilution, 18 hours at 35° C.; for MIC Enterococcus faecalis (ATCC 29212): strain ATCC 29212; for MIC Enterococcus faecalis (GC 2242): strain GC 2242; for MIC Enterococcus faecium (GC 2243): strain GC 2243; for MIC Enterococcus faecalis (GC 2691): strain GC 2691; for MIC Enterococcus faecalis (GC 3059): strain GC 3059; for MIC Enterococcus faecalis (GC 4552): strain GC 4552; for MIC Enterococcus faecalis (GC 4553): strain GC 4553; for MIC Enterococcus faecalis (GC 4554): strain GC 4554; for MIC Enterococcus faecium (GC 4556): strain GC 4556; for MIC Enterococcus faecium (GC 4557): strain GC 4557; for MIC Enterococcus avium (GC 4558): strain GC 4558; for MIC Enterococcus faecalis (GC 6189): strain GC 6189
Outline: as §1

MIC Escherichia coli (ATCC 25922) (Escherichia coli; strain ATCC 25922, 18 hours at 35° C.): >64 µg/mL
MIC Escherichia coli (GC 4559) (Escherichia coli; strain GC 4559, 18 hours at 35° C.): >64 µg/mL
MIC Escherichia coli (GC 4560) (Escherichia coli; strain GC 4560, 18 hours at 35° C.): 16 µg/mL (≈ 10.4 µM)
MIC Streptococcus pneumoniae (ATCC 6301) (Streptococcus sp.; inoculum 5×10^5 CFU/mL): <0.06 µg/mL
MIC Streptococcus pneumoniae (GC 1894) (Streptococcus sp.; inoculum 5×10^5 CFU/mL): <0.06 µg/mL
MIC Streptococcus pyogenes (GC 4563) (Streptococcus sp.; inoculum 5×10^5 CFU/mL): 0.5 µg/mL (≈ 0.326 µM)
MIC Streptococcus agalactiae (GC 4564) (Streptococcus sp.; inoculum 5×10^5 CFU/mL): <0.06 µg/mL
MIC Streptococcus pneumoniae (GC 4565) (Streptococcus sp.; inoculum 5×10^5 CFU/mL): <0.06 µg/mL
MIC Streptococcus pneumoniae (ATCC 6301) (Streptococcus sp.): <0.06 µg/mL
MIC Streptococcus pneumoniae (GC 1894) (Streptococcus sp.): <0.06 µg/mL
MIC Streptococcus pyogenes (GC 4563) (Streptococcus sp.): 0.5 µg/mL (≈ 0.326 µM)
MIC Streptococcus agalactiae (GC 4564) (Streptococcus sp.): <0.06 µg/mL
MIC Streptococcus pneumoniae (GC 4565) (Streptococcus sp.): <0.06 µg/mL
MIC Staphylococcus aureus (GC 1131) (Staphylococcus sp.; inoculum 5×10^5 CFU/mL): 4 µg/mL (≈ 2.61 µM)
MIC Staphylococcus aureus (ATCC 29213) (Staphylococcus sp.; strain ATCC 29213): 4 µg/mL (≈ 2.61 µM)
MIC Staphylococcus aureus (GC 1131) (Staphylococcus sp.): 4 µg/mL (≈ 2.61 µM)
MIC Staphylococcus aureus (GC 3051) (Staphylococcus sp.; strain GC 3051): 4 µg/mL (≈ 2.61 µM)
MIC Staphylococcus aureus (GC 3053) (Staphylococcus sp.; strain GC 3053): 4 µg/mL (≈ 2.61 µM)
MIC Staphylococcus aureus (GC 4541) (Staphylococcus sp.; strain GC 4541): 4 µg/mL (≈ 2.61 µM)
MIC Staphylococcus aureus (GC 4542) (Staphylococcus sp.; strain GC 4542): 4 µg/mL (≈ 2.61 µM)
MIC Staphylococcus aureus (GC 4544) (Staphylococcus sp.; strain GC 4544): 4 µg/mL (≈ 2.61 µM)
MIC Staphylococcus aureus (GC 4545) (Staphylococcus sp.; strain GC 4545): 4 µg/mL (≈ 2.61 µM)
MIC Staphylococcus aureus-SMITH (GC 4543) (Staphylococcus sp.; strain GC 4543): 4 µg/mL (≈ 2.61 µM)
MIC Coagulase Negative Staphylococcus (GC 4547) (Staphylococcus sp.; strain GC 4547): 8 µg/mL (≈ 5.22 µM)
MIC Coagulase Negative Staphylococcus (GC 4548) (Staphylococcus sp.; strain GC 4548): 2 µg/mL (≈ 1.31 µM)
MIC Coagulase Negative Staphylococcus (GC 4549) (Staphylococcus sp.; strain GC 4549): 1 µg/mL (≈ 0.653 µM)
MIC Coagulase Negative Staphylococcus (GC 4551) (Staphylococcus sp.; strain GC 4551): 2 µg/mL (≈ 1.31 µM)
MIC Coagulase Negative Staphylococcus (GC 6257) (Staphylococcus sp.; strain GC 6257): 2 µg/mL (≈ 1.31 µM)
MIC Enterococcus faecalis (ATCC 29212) (Enterococcus sp.; inoculum 5×10^5 CFU/mL): 2 µg/mL (≈ 1.31 µM)
MIC Enterococcus faecalis (GC 2242) (Enterococcus sp.; inoculum 5×10^5 CFU/mL): 2 µg/mL (≈ 1.31 µM)
MIC Enterococcus faecium (GC 2243) (Enterococcus sp.; inoculum 5×10^5 CFU/mL): 2 µg/mL (≈ 1.31 µM)
MIC Enterococcus faecalis (GC 2691) (Enterococcus sp.; inoculum 5×10^5 CFU/mL): 4 µg/mL (≈ 2.61 µM)
MIC Enterococcus faecalis (GC 3059) (Enterococcus sp.; inoculum 5×10^5 CFU/mL): 4 µg/mL (≈ 2.61 µM)
MIC Enterococcus faecalis (GC 4552) (Enterococcus sp.; inoculum 5×10^5 CFU/mL): 2 µg/mL (≈ 1.31 µM)
MIC Enterococcus faecalis (GC 4553) (Enterococcus sp.; inoculum 5×10^5 CFU/mL): 1 µg/mL (≈ 0.653 µM)
MIC Enterococcus faecalis (GC 4554) (Enterococcus sp.; inoculum 5×10^5 CFU/mL): 2 µg/mL (≈ 1.31 µM)
MIC Enterococcus faecium (GC 4556) (Enterococcus sp.; inoculum 5×10^5 CFU/mL): 4 µg/mL (≈ 2.61 µM)
MIC Enterococcus faecium (GC 4557) (Enterococcus sp.; inoculum 5×10^5 CFU/mL): 4 µg/mL (≈ 2.61 µM)
MIC Enterococcus avium (GC 4558) (Enterococcus sp.; inoculum 5×10^5 CFU/mL): 4 µg/mL (≈ 2.61 µM)
MIC Enterococcus faecalis (GC 6189) (Enterococcus sp.; inoculum 5×10^5 CFU/mL): 2 µg/mL (≈ 1.31 µM)
MIC Enterococcus faecalis (ATCC 29212) (Enterococcus sp.): 2 µg/mL (≈ 1.31 µM)
MIC Enterococcus faecalis (GC 2242) (Enterococcus sp.): 2 µg/mL (≈ 1.31 µM)
MIC Enterococcus faecium (GC 2243) (Enterococcus sp.): 2 µg/mL (≈ 1.31 µM)
MIC Enterococcus faecalis (GC 2691) (Enterococcus sp.): 4 µg/mL (≈ 2.61 µM)
MIC Enterococcus faecalis (GC 3059) (Enterococcus sp.): 4 µg/mL (≈ 2.61 µM)
MIC Enterococcus faecalis (GC 4552) (Enterococcus sp.): 2 µg/mL (≈ 1.31 µM)
MIC Enterococcus faecalis (GC 4553) (Enterococcus sp.): 1 µg/mL (≈ 0.653 µM)
MIC Enterococcus faecalis (GC 4554) (Enterococcus sp.): 2 µg/mL (≈ 1.31 µM)
MIC Enterococcus faecium (GC 4556) (Enterococcus sp.): 4 µg/mL (≈ 2.61 µM)
MIC Enterococcus faecium (GC 4557) (Enterococcus sp.): 4 µg/mL (≈ 2.61 µM)
MIC Enterococcus avium (GC 4558) (Enterococcus sp.): 4 µg/mL (≈ 2.61 µM)
MIC Enterococcus faecalis (GC 6189) (Enterococcus sp.): 2 µg/mL (≈ 1.31 µM)
Structure (SMILES): CC(c1ccccc1)C1NC(=O)CNC(=O)C(CO)NC(=O)C(C(O)C2CNC(=N)N2C2OC(CO)C(O)C(O)C2O)NC(=O)C(C(O)C2CNC(=N)N2)NC(=O)C(Cc2ccc(OC3OC(CO)C(OC4OC5COC(c6ccc(Oc7ccc(C(C)(C)C)cc7)cc6)OC5C(O)C4O)C(O)C3O)cc2)NC1=O (centres unmarked) [Example 181]
MIC Staphylococcus haemolyticus (GC 4546) (Staphylococcus sp.; strain GC 4546): 8 µg/mL (≈ 5.22 µM)
